In patent US8476434B2, “Protein kinase modulators and method of use” (Amgen Inc., priority 2004, dated 2013):

The compounds below were run against T1, LCK KD GST (225-509) (Homo sapiens, UniProt P06239) (assay: LCK Homogenous Time Resolved Fluorescent (HTRF) kinase assay).
T1 construct: LCK KD GST (225-509); GST
Type: biochemical
Procedure: The LCK HTRF assay begins with LCK in the presence of ATP phosphorylating the biotinylated peptide Gastrin. The reaction incubates for 90 min. To quench the assay detection reagents are added which both stop the reaction by diluting out the enzyme and chelating the metals due to the presence of EDTA. Once the detection reagents are added the assay incubates for 30 min to allow for equilibration of the detection reagents.
Buffer conditions are as follows: 50 mM HEPES pH 7.5, 50 mM NaCl, 20 mM MgCl, 5 mM MnCl, 2 mM DTT, 0.05% BSA.
The assay is quenched and stopped with 160 μL of detection reagent. Detection reagents are as follows: Buffer made of 50 mM Tris, pH 7.5, 100 mM NaCl, 3 mM EDTA, 0.05% BSA, 0.1% Tween20.
The assay plate is read in either a Discovery or a RubyStar.

T1 sequence (P06239 225-509): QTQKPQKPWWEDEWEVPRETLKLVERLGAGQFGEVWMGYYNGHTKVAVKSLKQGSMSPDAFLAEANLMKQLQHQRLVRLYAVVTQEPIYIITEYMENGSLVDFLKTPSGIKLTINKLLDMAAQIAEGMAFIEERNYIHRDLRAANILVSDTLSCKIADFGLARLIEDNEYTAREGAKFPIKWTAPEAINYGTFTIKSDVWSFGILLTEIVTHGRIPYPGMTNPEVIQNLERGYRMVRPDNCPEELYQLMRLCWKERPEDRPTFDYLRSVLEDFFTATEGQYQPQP

IC50, < 1000 nM:
CNc1nccc(-c2cccnc2Oc2cc(C(=O)Nc3cc(-c4ccccc4)ccc3OC)ccc2C)n1 [4-methyl-3-((3-(2-(methylamino)-4-pyrimidinyl)-2-pyridinyl)oxy)-N-(4-(methyloxy)-1,1′-biphenyl-3-yl)benzamide], CNc1nccc(-c2cccnc2Oc2ccc(F)c(C(=O)Nc3cc(C(F)(F)F)ccc3N(C)C3CCN(C)C3)c2)n1 (stereo not drawn) [2-fluoro-5-((3-(2-(methylamino)-4-pyrimidinyl)-2-pyridinyl)oxy)-N-(2-(methyl(1-methyl-3-pyrrolidinyl)amino)-5-(trifluoromethyl)phenyl)benzamide], Cc1ccc(C(=O)N[C@H](C)C2CCCCC2)cc1Nc1ncccc1-c1ccncn1 [N-((1R)-1-cyclohexylethyl)-4-methyl-3-((3-(4-pyrimidinyl)-2-pyridinyl)amino)benzamide], CNc1nccc(-c2cccnc2Oc2ccc(NC(=O)Nc3cc(C(F)(F)F)ccc3CN3CCN(C)CC3)cc2C)n1 [N-(3-methyl-4-((3-(2-(methylamino)-4-pyrimidinyl)-2-pyridinyl)oxy)phenyl)-N′-(2-((4-methyl-1-piperazinyl)methyl)-5-(trifluoromethyl)phenyl)urea], CNc1nccc(-c2cc(Cl)cnc2Oc2c(C)cccc2C)n1 [4-(5-chloro-2-((2,6-dimethylphenyl)oxy)-3-pyridinyl)-N-methyl-2-pyrimidinamine], CNc1nccc(-c2cccnc2Oc2cc(C(=O)Nc3cc(C(F)(F)F)ccc3N(C)C3CCN(C)CC3)c(F)cc2C)n1 [2-fluoro-4-methyl-5-((3-(2-(methylamino)-4-pyrimidinyl)-2-pyridinyl)oxy)-N-(2-(methyl(1-methyl-4-piperidinyl)amino)-5-(trifluoromethyl)phenyl)benzamide], CCOc1cccc(NC(=O)c2ccc(C)c(Nc3ncccc3-c3ccncn3)c2)c1 [N-(3-(ethyloxy)phenyl)-4-methyl-3-((3-(4-pyrimidinyl)-2-pyridinyl)amino)benzamide], CNc1ncnc(-c2cccnc2Oc2cc(C(=O)Nc3cc(C(F)(F)F)ccc3N(C)CCCN(C)C)ccc2C)n1 [N-(2-((3-(dimethylamino)propyl)(methyl)amino)-5-(trifluoromethyl)phenyl)-4-methyl-3-((3-(4-(methylamino)-1,3,5-triazin-2-yl)-2-pyridinyl)oxy)benzamide], CNc1ncnc(-c2cccnc2Oc2cc(C(=O)Nc3cccc(C(F)(F)F)c3C)ccc2C)n1 [4-methyl-3-((3-(4-(methylamino)-1,3,5-triazin-2-yl)-2-pyridinyl)oxy)-N-(2-methyl-3-(trifluoromethyl)phenyl)benzamide], CNc1nccc(-c2cccnc2Oc2cc(C(=O)Nc3cc(C(F)(F)F)ccc3N3CCCCC3)ccc2F)n1 [4-fluoro-3-((3-(2-(methylamino)-4-pyrimidinyl)-2-pyridinyl)oxy)-N-(2-(1-piperidinyl)-5-(trifluoromethyl)phenyl)benzamide], CNc1cc(-c2cccnc2Oc2ccc(F)c(C(=O)Nc3cc(C(C)(C)C)ccc3N(C)CCCN(C)C)c2)ccn1 [N-(2-((3-(dimethylamino)propyl)(methyl)amino)-5-(1,1-dimethylethyl)phenyl)-2-fluoro-5-((2′-(methylamino)-3,4′-bipyridin-2-yl)oxy)benzamide], CNc1nccc(-c2cccnc2Oc2ccc(NC(=O)Nc3cc(Cl)ccc3C)cc2C)n1 [N-(5-chloro-2-methylphenyl)-N′-(3-methyl-4-((3-(2-(methylamino)-4-pyrimidinyl)-2-pyridinyl)oxy)phenyl)urea], CNc1nccc(-c2cccnc2Oc2cc(C(=O)Nc3cc(OC[C@H]4CCCN4C)cc(C(F)(F)F)c3)ccc2C)n1 [4-methyl-3-((3-(2-(methylamino)-4-pyrimidinyl)-2-pyridinyl)oxy)-N-(3-((((2R)-1-methyl-2-pyrrolidinyl)methyl)oxy)-5-(trifluoromethyl)phenyl)benzamide], CNc1ncnc(-c2cccnc2Oc2ccc(NC(=O)Nc3cc(C(F)(F)F)ccc3N3CC[C@H](N(C)C)C3)c3ccccc23)n1 [N-(2-((3S)-3-(dimethylamino)-1-pyrrolidinyl)-5-(trifluoromethyl)phenyl)-N′-(4-((3-(4-(methylamino)-1,3,5-triazin-2-yl)-2-pyridinyl)oxy)-1-naphthalenyl)urea], Cc1ccc(C(=O)Nc2cccc(C(C)C)c2)cc1Oc1ncccc1-c1ncnc(NCCCN2CCOCC2)n1 [4-methyl-N-(3-(1-methylethyl)phenyl)-3-((3-(4-((3-(4-morpholinyl)propyl)amino)-1,3,5-triazin-2-yl)-2-pyridinyl)oxy)benzamide], CNc1nccc(-c2cccnc2Oc2cccc(NC(=O)c3cc(C(C)(C)C)ccc3OC)c2)n1 [5-(1,1-dimethylethyl)-N-(3-((3-(2-(methylamino)-4-pyrimidinyl)-2-pyridinyl)oxy)phenyl)-2-(methyloxy)benzamide], CNc1ncnc(-c2cccnc2Oc2cc(C(=O)Nc3cc(C4CCCCC4)ccc3OC)ccc2C)n1 [N-(5-cyclohexyl-2-(methyloxy)phenyl)-4-methyl-3-((3-(4-(methylamino)-1,3,5-triazin-2-yl)-2-pyridinyl)oxy)benzamide], CNc1nccc(-c2cccnc2Oc2ccc(NC(=O)Nc3cccc(F)c3)cc2C)n1 [N-(3-fluorophenyl)-N′-(3-methyl-4-((3-(2-(methylamino)-4-pyrimidinyl)-2-pyridinyl)oxy)phenyl)urea], CCNc1ncnc(-c2cccnc2Oc2cc(C(=O)Nc3cc(C4CCCCC4)ccc3OC)ccc2C)n1 [N-(5-cyclohexyl-2-(methyloxy)phenyl)-3-((3-(4-(ethylamino)-1,3,5-triazin-2-yl)-2-pyridinyl)oxy)-4-methylbenzamide], CNc1cc(-c2cccnc2Oc2cc(NC(=O)c3cccc(C(C)C)c3)cc(C(F)(F)F)c2)ccn1 [N-(3-((2′-(methylamino)-3,4′-bipyridin-2-yl)oxy)-5-(trifluoromethyl)phenyl)-3-(1-methylethyl)benzamide], CNc1ncnc(-c2cccnc2Oc2ccc(F)c(C(=O)Nc3cc(C(F)(F)C(F)(F)F)ccc3N(C)CCCN(C)C)c2)n1 [N-(2-((3-(dimethylamino)propyl)(methyl)amino)-5-(pentafluoroethyl)phenyl)-2-fluoro-5-((3-(4-(methylamino)-1,3,5-triazin-2-yl)-2-pyridinyl)oxy)benzamide], CNc1nccc(-c2cccnc2Oc2ccc(F)c(C(=O)Nc3cccc(C(C)C)c3)c2)n1 [2-fluoro-5-((3-(2-(methylamino)-4-pyrimidinyl)-2-pyridinyl)oxy)-N-(3-(1-methylethyl)phenyl)benzamide], CNc1nccc(-c2cccnc2Oc2cccc(NC(=O)c3cc(Cl)cc(Cl)c3)c2)n1 [3,5-dichloro-N-(3-((3-(2-(methylamino)-4-pyrimidinyl)-2-pyridinyl)oxy)phenyl)benzamide], CNc1nccc(-c2cccnc2Oc2ccc(NC(=O)Nc3cc(C)ccc3C)cc2C)n1 [N-(2,5-dimethylphenyl)-N′-(3-methyl-4-((3-(2-(methylamino)-4-pyrimidinyl)-2-pyridinyl)oxy)phenyl)urea], CC(C)c1cccc(NC(=O)c2ccc(F)c(Nc3ncccc3-c3ncnc(NCCCn4ccnc4)n3)c2)c1 [4-fluoro-3-((3-(4-((3-(1H-imidazol-1-yl)propyl)amino)-1,3,5-triazin-2-yl)-2-pyridinyl)amino)-N-(3-(1-methylethyl)phenyl)benzamide], CNc1cc(-c2cccnc2Oc2cc(C(=O)Nc3cc(C(F)(F)F)ccc3N(C)CCCN(C)C)ccc2C)ccn1 [N-(2-((3-(dimethylamino)propyl)(methyl)amino)-5-(trifluoromethyl)phenyl)-4-methyl-3-((2′-(methylamino)-3,4′-bipyridin-2-yl)oxy)benzamide], CNc1nccc(-c2cccnc2Oc2ccc(NC(=O)Nc3cc(Cl)ccc3N(C)CCCN(C)C)cc2C)n1 [N-(5-chloro-2-((3-(dimethylamino)propyl)(methyl)amino)phenyl)-N′-(3-methyl-4-((3-(2-(methylamino)-4-pyrimidinyl)-2-pyridinyl)oxy)phenyl)urea], CNc1nccc(-c2cccnc2Oc2ccc(NC(=O)Nc3cc(Cl)ccc3N(C)[C@@H]3CCN(C)C3)cc2C)n1 [N-(5-chloro-2-(methyl((3R)-1-methyl-3-pyrrolidinyl)amino)phenyl)-N′-(3-methyl-4-((3-(2-(methylamino)-4-pyrimidinyl)-2-pyridinyl)oxy)phenyl)urea], O=C(Nc1cccc(C(F)(F)F)c1)Nc1ccc(Oc2ncccc2-c2ccncn2)c2ccccc12 [N-(4-((3-(4-pyrimidinyl)-2-pyridinyl)oxy)-1-naphthalenyl)-N′-(3-(trifluoromethyl)phenyl)urea], CNc1nccc(-c2cccnc2Oc2cc(C(=O)Nc3cc(C(C)(C)C)nn3-c3ccccc3)ccc2C)n1 [N-(3-(1,1-dimethylethyl)-1-phenyl-1H-pyrazol-5-yl)-4-methyl-3-((3-(2-(methylamino)-4-pyrimidinyl)-2-pyridinyl)oxy)benzamide]
